Experimental data published in US20100292091A1, “MARA FAMILY HELIX-TURN-HELIX DOMAINS AND THEIR METHODS OF USE” (Trustees of Tufts College, priority 1998, published 2010).
Structures can show the parent of a compound that is named as a salt.

Assays:
[1] = tested on: E. coli BL21; experiment: Antibiotic gradient plate susceptibility of E. coli transformants with plasmids bearing E. coli mar genes; format: cell-based, Escherichia coli
Excerpt: PCR oligonucleotide primers were used to prepare a wild-type marA amplicon from E. coli AG100 (A. M. George, et al, J. Bacteriol., 1983, 155:531-540) chromosomal DNA, based on the annotated sequence (S. P. Cohen, et al. J. Bacteriol., 1993, 175:1484-1492). The oligonucleotide primers corresponded with nucleotide positions 1893 to 1910 and 2265 to 2282 and contained terminal EcoRI restriction enzyme sites to allow insertion of marA in frame with the hsp60 mycobacterial heat shock promoter resident on the E. coli-Mycobacterium shuttle plasmid pMV261 (W. R. Jacobs, et al. Microbiol. Immunol., 1990, 155:153-160). […] These mutant marA genes were ligated to pMV261 and pET13a for testing in M. smegmatis and E. coli, respectively. Plasmids were introduced into E. coli and M. smegmatis mc^2155 by electroporation with a Gene Pulser transfection apparatus (Bio-Rad. Richmond, Calif.) and selected on kanamycin (10 or 25 μg/ml).
To obtain support for the notion that the resistance phenotype was a direct result of MarA activity in the cell, insertional mutants targeted to the first helix-turn-helix domain (HTH1) (M. N. Alekshun, et al. Chemother, 41:2067-2075) of the MarA protein were constructed. […] A double-stranded synthetic oligonucleotide with compatible ends was ligated to the NheI sites to produce two distinct insertional mutants interrupting each of the two putative alpha-helical regions (FIG. 1). These mutated genes were cloned into pMV261, as described above, for susceptibility testing in M. smegmatis at 37° C. They were also expressed from the isopropyl-β-D-thiogalactopyranoside (IPTG)-regulated T7 promoter resident on plasmid pET13a for testing in E. coli BL21 (Studier et al. 1990. Methods Enzymol. 185:60). Insertional inactivation of MarA at either helix A or helix B of the first HTH abolished the multidrug resistance phenotype in both E. coli and M. smegmatis the (Table 3 and 4).

[2] = tested on: M. smegmatis mc^2155; format: cell-based, Mycobacterium smegmatis
[3] = transformant pEC10 (pET13::marA), same gradients
[4] = transformant pET13a (vector), gradient (µg/ml) CML 2.0, TET 1.0, AMP 3.0, NAL 1.0

SMILES	% Gowth in antibiotic gradient [1, 3]	% Gowth in antibiotic gradient [1, 4]	resistance compared to the microbe with vector alone [2]	change in susceptibility in the presence of marA [2]	further results
CC1(C)S[C@@H]2[C@H](NC(=O)[C@H](N)c3ccccc3)C(=O)N2[C@H]1C(=O)O [AMP, ampicillin]	11 ± 2.0%	2 ± 1.1%	–	–	–
O=C(N[C@H](CO)[C@H](O)c1ccc([N+](=O)[O-])cc1)C(Cl)Cl [CML, chloramphenicol]	100%	20 ± 1.1%	increased resistance	–	fold increase of resistance in the presence of marA [2]: two-fold
CC[C@@H](CO)NCCN[C@@H](CC)CO [ETM, ethambutol]	–	–	increased resistance	–	fold increase of resistance in the presence of marA [2]: 1.5 fold
NNC(=O)c1ccncc1 [INH, isoniazid]	–	–	increased resistance	–	fold increase of resistance in the presence of marA [2]: 2.5 fold
CCn1cc(C(=O)O)c(=O)c2ccc(C)nc21 [NAL, nalidixic acid]	100%	17 ± 0.8%	–	Little if any change in susceptibility	–
CCn1cc(C(=O)O)c(=O)c2cc(F)c(N3CCNCC3)cc21 [Nor, norfloxacin]	–	–	–	some increased susceptibility	–
CO[C@H]1/C=C/O[C@@]2(C)Oc3c(C)c(O)c4c(O)c(c(/C=N/N5CCN(C)CC5)c(O)c4c3C2=O)NC(=O)/C(C)=C\C=C\[C@H](C)[C@H](O)[C@@H](C)[C@@H](O)[C@@H](C)[C@H](OC(C)=O)[C@@H]1C [RIF, rifampin]	–	–	Increased resistance	–	resistance in the presence of vector alone [2]: increased
CN(C)[C@@H]1C(O)=C(C(N)=O)C(=O)[C@@]2(O)C(O)=C3C(=O)c4c(O)cccc4[C@@](C)(O)[C@H]3C[C@@H]12 [TET, tetracycline]	100%	33 ± 1.0%	–	–	% Gowth in antibiotic gradient ([1]; {}): 33 ± 1.4%
COS(=O)(=O)[O-].C[n+]1c2ccccc2nc2ccccc21 [phenazine methosulfate]	–	–	–	Little if any change in susceptibility	–
C[C@@H]1CN(c2c(F)c(N)c3c(=O)c(C(=O)O)cn(C4CC4)c3c2F)C[C@H](C)N1 [sparfloxacin]	–	–	–	Little if any change in susceptibility	–
[H]/N=C(/N)N[C@H]1[C@H](O)[C@@H](O)[C@H](O[C@@H]2O[C@@H](C)[C@](O)(C=O)[C@H]2O[C@@H]2O[C@@H](CO)[C@H](O)[C@@H](O)[C@@H]2NC)[C@@H](N/C(N)=N\[H])[C@@H]1O [streptomycin, streptomycin sulfate]	–	–	–	some increased susceptibility	–
